The source of these data is patent publication US20230075368A1, “IDENTIFICATION OF AN EGFR-BIN3 PATHWAY THAT ACTIVELY SUPPRESSES INVASION AND REDUCES TUMOR SIZE IN GLIOBLASTOMA” (The United States Govemment as represented by the …, priority 2020, published 2023).

What all share (assay type): cell-based, human
Experiment [1] has as its system EGR1. The experiment in a line: EGR1 levels (qPCR, Western blot) and EGR1 promoter luciferase assay. Here is the method: Whole protein extracts from cells or tumor tissues were analyzed by western blot as previously described (Altieri et al. (2015) Surg. Technol. Int 27: 297-302). Mayo PDX cells were serum starved overnight. Following treatment for specific time, cells were harvested and lysed. The human glioblastoma tissues were ground in liquid nitrogen and then were lysed. EGFR (06-847) antibody was from Millipore. DOCK7 was from Proteintech (Rosemont, Ill.). pEGFR (2236), STAT3 (12640), pSTAT3 (9145), cdc42(4376), and RhoA (4695) antibodies were from Cell Signaling Technology (Danvers, Mass.). TGFα antibody was from R&D system. BIN3 (sc-514396) and (3-Actin (sc-47778) were from Santa Cruz Biotechnology (Dallas, Tex.).
Total RNA from cells was extracted by TRIzol Reagent (Ambion). First-strand cDNA and PCR was performed as described previously (Altieri et al. (2015) Surg. Technol. Int. 27: 297-302). The expression of each gene was normalized to GAPDH as a reference. The following primers were used. BIN3, 5′-[…]-3′ (SEQ ID NO:5) and 5′-[…]-3′ (SEQ ID NO:6); GAPDH, 5′-[…]-3′ (SEQ ID NO:7) and 5′-TGATG-[…]-3′ (SEQ ID NO:8).
Cells were plated in 48 well dishes to 70%-80% confluence followed by transfection with EGR1 promoter plasmid or empty plasmid using lipofectamine 2000. […] Firefly luciferase activity was measured in a luminometer and normalized on the basis of Renilla luciferase activity.
Background: Quantitative PCR measures a nucleic acid by following its amplification.

The subject of experiment [2] is Mayo PDX cells. The experiment in a line: Matrigel invasion assay. The procedure:
Invasion status of cells was tested with Matrigel Boyden chamber assays (Fisher). 1×10^5 cells were plated on BD BioCoat Matrigel invasion chambers. 24 hours after treatment with drugs, invaded cells were stained with the HEMA-3 kit (Fisher). Invaded cells were counted in 4-5 random fields.
An equal number of cells (5×10^4) were seeded on Matrigel coated inserts, and were untreated (control vehicle) or stimulated with 50 ng/ml EGF for 24 hours, cells invading to the other side of the membrane were counted and presented as percentage cell invasion. […] A similar invasion assay was conducted on GBM26 cells (FIG. 2D). […] Cells were transfected with EGFR or scrambled siRNA for 48 hours before the invasion assay. A similar invasion assay was performed on GBM6 (FIG. 2G). […] Cells were transiently transfected with empty or EGFR wildtype (EGFRwt) overexpressing vector, and invasion assay was performed after 48 hours after transfection. […] Cells were treated with or without 50 ng/ml EGF for 48 hours before the assay. The Western blot images are representative of three independent biological replicates. Actin served as loading control. Data are represented as mean±SEM from three independent experiments. *P<0.05, **P<0.01, n.s. not significant, unpaired two-tailed Student's t-test.
FIG. 3C and FIG. 3D show the results of a Matrigel invasion assay of EGFR siRNA knockdown in GBM12 and GBM6 in response to EGF. Cells were treated with EGFR or scrambled siRNA for 48 hours, transfected cells were seeded on Matrigel coated inserts and were treated with or without 50 ng/ml EGF for 24 hours. […] Cells were transiently transfected with EGFRvIII expression or empty vector, invasion assay was performed 48 hours after transfection. […] Western blot images are representative of three independent biological replicates. Actin served as a loading control. Data are represented as mean±SEM from three independent experiments. […], **P<0.01, ***P<0.001, n.s. not significant, unpaired two-tailed t-test.

Experiment [3] deals with BIN3. The experiment in a line: BIN3 expression by Western blot / real-time PCR. The procedure: Mayo PDX cells were serum starved overnight. Following treatment for specific time, cells were harvested and lysed. The human glioblastoma tissues were ground in liquid nitrogen and then were lysed. […] TGFα antibody was from R&D system.
Total RNA from cells was extracted by TRIzol Reagent (Ambion). […] The expression of each gene was normalized to GAPDH as a reference. The following primers were used.
Specifically, Western blot analysis of BIN3 in PDXs in response to EGF was performed (FIG. 4A). Cells were serum starved overnight and treated with 50 ng/ml EGF for 48 hours. BIN3 mRNA levels in EGF-treated PDXs were determined by real-time PCR (FIG. 7B). […] Cells were treated with BIN3 or scrambled siRNA for 48 hours, transfected cells were treated with or without 50 ng/ml EGF for 24 hours. Similar experiments were conducted in GBM6 and GBM22 (FIG. 7D and FIG. 7E). Referring to FIG. 7F, knockdown efficiency of BIN3 siRNA was analyzed by Western blotting. […] Cells were transiently transfected with vector expressing BIN3 for 48 hours followed by invasion assay. […] EGR1 mRNA levels in GBM12 and GBM6 after EGF treatment were determined by real-time PCR (RT-PCR) (FIG. 7I). […] A similar experiment was performed in GBM6 (FIG. 7L). […] A similar experiment was performed in GBM6 (FIG. 7N). Knockdown efficiency of EGR-1 siRNA was analyzed by Western blotting (FIG. 7O). The Western blot images are representative of three independent biological replicates. Actin served as loading control. Data are represented as mean±SEM from three independent experiments. * P<0.05, **P<0.01, unpaired two-tailed t-test.
On the technique in general: A western blot detects proteins with antibodies after separation by electrophoresis.

Experiment [4] deals with RhoA. The experiment in a line: RhoA pull down assay (RhoA-GTP). As to conditions: 24 hours, GBM12 and GBM6. Here is the method: (§1) The amount of GTP-bound RhoA and Cdc42 were measured using RhoA and Cdc42 pull down assay kit (Cell Signaling) according to the protocol provided by the manufacturer. Briefly, cell lysates were incubated with either glutathione S-transferase (GST)-Rhotekin-RBD or GST-PAK-PBD beads 4° C. for 1 hour to pull down GTP-bound RhoA or Cdc42. Beads were washed four times in washing buffer and re-suspended in lysis buffer. RhoA-GTP and Cdc42-GTP were detected by Western blot using RhoA and Cdc42 antibodies.

Experiment [5] has as its system CDC42. The experiment in a line: Cdc42 pull down assay (CDC42-GTP). As to conditions: 24 hours, GBM12 and GBM6. The procedure:
as §1

For the compound `C[C@@H]1CCN(C(=O)CC#N)C[C@@H]1N(C)c1ncnc2[nH]ccc12` [tofacitinib], the “EGR1 levels and activity” value in experiment [1] (tofacitinib, Western blot 4 hours, luciferase 2 and 24 hours) was “induces EGR1 levels and activity”. Besides, in experiment [2] (GBM39 with HBEGF silenced vs. GBM39 control, tofacitinib 1 μM), the “responsiveness in invasion assay” value is “more responsive”. The cell invasion entry in experiment [2] (GBM44 with HB-EGF siRNA knockdown, tofacitinib 1 μM) was “inhibits invasion”; in experiment [2] (tofacitinib 1 μM, 24 hours, multiple PDX lines), “inhibited invasiveness”. For the same compound, the “upregulation of BIN3” value is given as “do not respond” in experiment [3] (GBM39 and GBM44 (high endogenous EGFR ligand, high BIN3), tofacitinib 1 μM, 48 hours); “could now upregulate BIN3” in experiment [3] (GBM39 with HBEGF silenced, tofacitinib, 48 hours). Besides, in experiment [3] (tofacitinib 1 μM, 24 hours, PDXs), the “BIN3 mRNA level” value is “upregulates BIN3 at the mRNA level”. Besides, the BIN3 protein level entry in experiment [3] (tofacitinib 1 μM, 48 hours, multiple PDX lines) was “strongly upregulated”. In experiment [3] (tofacitinib in cells treated with a saturating concentration of EGF, 48 hours, GBM12 and GBM6), the BIN3 level result is “did not induce a further increase”.

In the case of “EGF: Recombinant human EGF (AF-100) from Peprotech; EGFR ligand”, in experiment [1] (EGF 50 ng/ml, GBM12 and GBM6), the “EGR1 mRNA, protein and transcriptional activity” value was “upregulation of EGR1 was confirmed”. The cell invasion entry in experiment [2] (EGF 50 ng/ml, 24 hours, multiple Mayo PDX explant cultures expressing EGFRwt or EGFRvIII plus EGFRwt) is “suppressed invasion”; in experiment [2] (EGFR overexpressing PDX cells exposed to EGF) it was “invasion is suppressed”. Besides, the RhoA activity result in experiment [4] (EGF 50 ng/ml) is recorded as “decreases the activity”. Further, the BIN3 protein level entry in experiment [3] (EGF 50 ng/ml, 48 hours, Mayo PDX lines, Western blot) is reported as “robust increase”. Further, in experiment [3] (EGF-treated PDXs, real-time PCR), the “BIN3 mRNA level” value is “regulated by EGF at the mRNA level”. Besides, the CDC42 activity entry in experiment [5] (EGF 50 ng/ml) is “decreases the activity”.

For HGF: the ligand for Met, in experiment [2] (HGF 20 ng/ml, 24 hours, GBM12 and GBM6), the cell invasion entry is on record as “increased invasiveness”. In addition, in experiment [4] (HGF), the RhoA activity result is “increase in RhoA activity”. In addition, in experiment [3] (HGF 20 ng/ml, 24 hours), the BIN3 levels entry is reported as “does not affect BIN3 levels”. In addition, the CDC42 activity entry in experiment [5] (HGF 20 ng/ml) is listed as “increase of CDC42 activity was not detected”.
